Test results as given in ChEMBL document CHEMBL1201862, “PubChem BioAssay data set” (2004).
One block for each molecule: values may come before it. Activity calls are given as the source filed them.

Tests used:
Assay type in all cases: functional
[1] = biological target: Melanin-concentrating hormone receptor 1 (Homo sapiens, UniProt Q99705); experiment: Late-stage fluorescence-based counterscreen for antagonists of the G-protein coupled receptor 7 (GPR7): cell-based dose response assay to identify antagonists of the melanin-concentrating hormone receptor 1 (MCHR1) Set 6.
Chain of Melanin-concentrating hormone receptor 1 (Q99705 whole entry): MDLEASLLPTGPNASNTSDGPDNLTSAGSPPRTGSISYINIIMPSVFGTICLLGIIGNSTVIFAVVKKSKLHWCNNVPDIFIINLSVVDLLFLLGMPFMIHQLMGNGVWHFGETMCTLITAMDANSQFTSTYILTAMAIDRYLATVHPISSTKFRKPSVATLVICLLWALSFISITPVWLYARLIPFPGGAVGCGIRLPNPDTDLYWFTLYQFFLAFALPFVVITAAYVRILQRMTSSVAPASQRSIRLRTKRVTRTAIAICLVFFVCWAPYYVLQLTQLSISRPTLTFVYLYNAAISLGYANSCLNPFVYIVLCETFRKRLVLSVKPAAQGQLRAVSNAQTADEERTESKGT

[2] = biological target: T1, Neuropeptides B/W receptor type 1 (Homo sapiens, UniProt P48145); experiment: GPR7 antagonist potency, late-stage follow-up, cell-based, fluorescence, dose response, set 6 (AID 588583)
T1 sequence (P48145 whole entry): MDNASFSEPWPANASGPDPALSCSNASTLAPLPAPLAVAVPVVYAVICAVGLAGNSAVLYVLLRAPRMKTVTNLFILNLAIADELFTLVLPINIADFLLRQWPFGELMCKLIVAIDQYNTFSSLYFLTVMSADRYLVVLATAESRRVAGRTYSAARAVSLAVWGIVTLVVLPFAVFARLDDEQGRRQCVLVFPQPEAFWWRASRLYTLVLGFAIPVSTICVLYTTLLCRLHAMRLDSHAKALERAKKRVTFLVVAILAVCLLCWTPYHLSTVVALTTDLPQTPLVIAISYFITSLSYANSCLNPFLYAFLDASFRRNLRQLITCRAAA

Aurora kinase A = Aurora kinase A (Homo sapiens, UniProt O14965);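 further: value from the Navigating the Kinome kinase panel profiling, panel entry STK6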
[3] = biological target: Vascular endothelial growth factor receptor 2 (Homo sapiens, UniProt P35968)
Aurora kinase B = Aurora kinase B (Homo sapiens, UniProt Q96GD4)
Chain of Aurora kinase B (Q96GD4 whole entry): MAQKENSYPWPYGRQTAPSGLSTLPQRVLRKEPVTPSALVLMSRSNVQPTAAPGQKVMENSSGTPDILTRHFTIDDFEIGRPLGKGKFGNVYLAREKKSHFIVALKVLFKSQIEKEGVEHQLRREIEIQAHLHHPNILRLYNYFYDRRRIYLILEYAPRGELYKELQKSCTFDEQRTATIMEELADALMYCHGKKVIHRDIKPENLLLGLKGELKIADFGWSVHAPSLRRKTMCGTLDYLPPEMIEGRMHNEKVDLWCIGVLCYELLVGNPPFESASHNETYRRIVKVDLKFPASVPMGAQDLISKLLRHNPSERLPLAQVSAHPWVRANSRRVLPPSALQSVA

[4] = biological target: DNA dC->dU-editing enzyme APOBEC-3A (Homo sapiens, UniProt P31941); experiment: APOBEC3A DNA deaminase inhibitors, dose response, biochemical (AID 504722)
Chain of DNA dC->dU-editing enzyme APOBEC-3A (P31941 whole entry): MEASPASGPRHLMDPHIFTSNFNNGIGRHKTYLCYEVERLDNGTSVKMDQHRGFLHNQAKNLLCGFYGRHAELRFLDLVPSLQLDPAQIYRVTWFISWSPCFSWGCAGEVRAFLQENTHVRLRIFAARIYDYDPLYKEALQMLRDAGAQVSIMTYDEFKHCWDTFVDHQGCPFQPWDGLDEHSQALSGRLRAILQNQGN

[5] = biological target: DNA dC->dU-editing enzyme APOBEC-3G (Homo sapiens, UniProt Q9HC16); experiment: Dose Response confirmation of small molecule APOBEC3G DNA Deaminase Inhibitors via a fluorescence-based single-stranded DNA deaminase assay. [Related pubchem assays (depositor defined):AID493012, AID493028]
Chain of DNA dC->dU-editing enzyme APOBEC-3G (Q9HC16 whole entry): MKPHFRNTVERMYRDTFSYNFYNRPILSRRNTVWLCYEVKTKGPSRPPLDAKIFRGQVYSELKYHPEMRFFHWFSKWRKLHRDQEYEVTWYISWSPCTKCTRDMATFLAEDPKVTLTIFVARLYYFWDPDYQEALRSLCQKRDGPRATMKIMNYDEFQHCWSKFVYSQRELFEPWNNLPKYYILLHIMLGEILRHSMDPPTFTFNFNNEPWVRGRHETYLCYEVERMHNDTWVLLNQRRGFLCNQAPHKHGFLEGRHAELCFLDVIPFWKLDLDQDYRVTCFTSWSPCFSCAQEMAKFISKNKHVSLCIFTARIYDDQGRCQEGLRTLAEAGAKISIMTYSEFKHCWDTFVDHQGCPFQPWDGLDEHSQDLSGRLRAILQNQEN

[6] = biological target: T2, Glycogen synthase kinase-3 beta (Homo sapiens, UniProt P49841); experiment: GSK3beta kinase inhibitors, dose response, biochemical, microfluidics, dry powder samples, set 2 (AID 623989)
T2 sequence (P49841 whole entry): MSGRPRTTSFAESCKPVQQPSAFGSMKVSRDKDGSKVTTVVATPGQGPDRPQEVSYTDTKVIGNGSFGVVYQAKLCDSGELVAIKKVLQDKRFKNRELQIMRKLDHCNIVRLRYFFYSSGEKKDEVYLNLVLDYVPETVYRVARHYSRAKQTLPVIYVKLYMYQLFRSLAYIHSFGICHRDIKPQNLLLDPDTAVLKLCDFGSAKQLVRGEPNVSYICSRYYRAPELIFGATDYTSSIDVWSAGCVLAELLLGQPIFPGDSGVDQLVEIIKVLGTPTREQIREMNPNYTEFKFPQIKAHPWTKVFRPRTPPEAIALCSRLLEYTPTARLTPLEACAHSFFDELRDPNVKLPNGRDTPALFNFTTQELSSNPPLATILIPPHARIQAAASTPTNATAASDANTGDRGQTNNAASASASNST

[7] = biological target: Glycogen synthase kinase-3 alpha (Homo sapiens, UniProt P49840); experiment: human GSK3 alpha kinase inhibition, dose response, selectivity assay for GSK3beta inhibitor project, biochemical, microfluidics, dry powder samples, set 2 (AID 623978)
Chain of Glycogen synthase kinase-3 alpha (P49840 whole entry): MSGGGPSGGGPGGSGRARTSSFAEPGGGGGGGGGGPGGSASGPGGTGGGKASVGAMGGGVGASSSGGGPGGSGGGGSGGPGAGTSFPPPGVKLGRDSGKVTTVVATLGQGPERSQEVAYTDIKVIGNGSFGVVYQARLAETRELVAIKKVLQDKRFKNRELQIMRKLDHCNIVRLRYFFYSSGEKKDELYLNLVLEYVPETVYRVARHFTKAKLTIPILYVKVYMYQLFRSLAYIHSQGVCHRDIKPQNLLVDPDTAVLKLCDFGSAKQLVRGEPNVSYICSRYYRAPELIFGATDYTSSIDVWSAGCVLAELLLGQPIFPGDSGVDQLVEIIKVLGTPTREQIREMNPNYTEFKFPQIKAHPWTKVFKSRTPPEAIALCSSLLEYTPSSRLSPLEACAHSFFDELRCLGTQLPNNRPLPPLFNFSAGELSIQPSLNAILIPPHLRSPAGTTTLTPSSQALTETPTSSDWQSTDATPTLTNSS

[8] = biological target: Cyclin-dependent kinase 5/CDK5 activator 1 (Homo sapiens, UniProt Q00535); experiment: CDK5-p25 kinase inhibition, dose response, selectivity assay for GSK3beta inhibitor project, biochemical, microfluidic mobility shift, dry powder, set 2 (AID 623979)
[9] = biological target: Serine/threonine-protein kinase pim-1 (Homo sapiens, UniProt P11309)
Chain of Serine/threonine-protein kinase pim-1 (P11309 whole entry): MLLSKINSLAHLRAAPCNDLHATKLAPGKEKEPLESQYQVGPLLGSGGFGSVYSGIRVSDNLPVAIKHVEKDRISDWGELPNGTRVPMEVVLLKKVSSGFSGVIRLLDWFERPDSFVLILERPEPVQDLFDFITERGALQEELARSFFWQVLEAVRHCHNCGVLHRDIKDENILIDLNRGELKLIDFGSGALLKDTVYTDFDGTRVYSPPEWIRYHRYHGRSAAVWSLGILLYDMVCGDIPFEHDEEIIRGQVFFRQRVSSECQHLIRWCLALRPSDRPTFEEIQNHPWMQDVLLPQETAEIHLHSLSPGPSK

[10] = biological target: Cell division cycle 7-related protein kinase (Homo sapiens, UniProt O00311);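 further: value obtained from a kinome-wide kinase panel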
[11] = biological target: Homeodomain-interacting protein kinase 2 (Homo sapiens, UniProt Q9H2X6);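 further: measured within a kinome-wide kinase profiling panel, HIPK2 being one panel member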
[12] = biological target: Interleukin-1 receptor-associated kinase 4 (Homo sapiens, UniProt Q9NWZ3)
Chain of Interleukin-1 receptor-associated kinase 4 (Q9NWZ3 whole entry): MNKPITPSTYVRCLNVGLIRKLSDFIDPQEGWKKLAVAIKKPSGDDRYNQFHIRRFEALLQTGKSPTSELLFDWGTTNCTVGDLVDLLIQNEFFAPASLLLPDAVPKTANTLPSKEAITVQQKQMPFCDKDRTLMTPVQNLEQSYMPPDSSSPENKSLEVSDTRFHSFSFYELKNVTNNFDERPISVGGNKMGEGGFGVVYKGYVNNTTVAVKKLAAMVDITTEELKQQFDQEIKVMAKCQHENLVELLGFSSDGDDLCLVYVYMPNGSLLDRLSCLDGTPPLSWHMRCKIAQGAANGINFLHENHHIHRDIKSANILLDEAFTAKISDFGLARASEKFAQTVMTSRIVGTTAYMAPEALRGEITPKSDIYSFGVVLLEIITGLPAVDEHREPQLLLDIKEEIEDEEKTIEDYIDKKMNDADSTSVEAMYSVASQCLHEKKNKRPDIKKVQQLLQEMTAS

[13] = biological target: T2, Glycogen synthase kinase-3 beta
[14] = biological target: cAMP-dependent protein kinase catalytic subunit alpha (Homo sapiens, UniProt P17612)
[15] = biological target: Dual specificity protein kinase CLK4 (Homo sapiens, UniProt Q9HAZ1)
[16] = biological target: Mitogen-activated protein kinase kinase kinase kinase 4 (Homo sapiens, UniProt O95819)
Chain of Mitogen-activated protein kinase kinase kinase kinase 4 (O95819 whole entry): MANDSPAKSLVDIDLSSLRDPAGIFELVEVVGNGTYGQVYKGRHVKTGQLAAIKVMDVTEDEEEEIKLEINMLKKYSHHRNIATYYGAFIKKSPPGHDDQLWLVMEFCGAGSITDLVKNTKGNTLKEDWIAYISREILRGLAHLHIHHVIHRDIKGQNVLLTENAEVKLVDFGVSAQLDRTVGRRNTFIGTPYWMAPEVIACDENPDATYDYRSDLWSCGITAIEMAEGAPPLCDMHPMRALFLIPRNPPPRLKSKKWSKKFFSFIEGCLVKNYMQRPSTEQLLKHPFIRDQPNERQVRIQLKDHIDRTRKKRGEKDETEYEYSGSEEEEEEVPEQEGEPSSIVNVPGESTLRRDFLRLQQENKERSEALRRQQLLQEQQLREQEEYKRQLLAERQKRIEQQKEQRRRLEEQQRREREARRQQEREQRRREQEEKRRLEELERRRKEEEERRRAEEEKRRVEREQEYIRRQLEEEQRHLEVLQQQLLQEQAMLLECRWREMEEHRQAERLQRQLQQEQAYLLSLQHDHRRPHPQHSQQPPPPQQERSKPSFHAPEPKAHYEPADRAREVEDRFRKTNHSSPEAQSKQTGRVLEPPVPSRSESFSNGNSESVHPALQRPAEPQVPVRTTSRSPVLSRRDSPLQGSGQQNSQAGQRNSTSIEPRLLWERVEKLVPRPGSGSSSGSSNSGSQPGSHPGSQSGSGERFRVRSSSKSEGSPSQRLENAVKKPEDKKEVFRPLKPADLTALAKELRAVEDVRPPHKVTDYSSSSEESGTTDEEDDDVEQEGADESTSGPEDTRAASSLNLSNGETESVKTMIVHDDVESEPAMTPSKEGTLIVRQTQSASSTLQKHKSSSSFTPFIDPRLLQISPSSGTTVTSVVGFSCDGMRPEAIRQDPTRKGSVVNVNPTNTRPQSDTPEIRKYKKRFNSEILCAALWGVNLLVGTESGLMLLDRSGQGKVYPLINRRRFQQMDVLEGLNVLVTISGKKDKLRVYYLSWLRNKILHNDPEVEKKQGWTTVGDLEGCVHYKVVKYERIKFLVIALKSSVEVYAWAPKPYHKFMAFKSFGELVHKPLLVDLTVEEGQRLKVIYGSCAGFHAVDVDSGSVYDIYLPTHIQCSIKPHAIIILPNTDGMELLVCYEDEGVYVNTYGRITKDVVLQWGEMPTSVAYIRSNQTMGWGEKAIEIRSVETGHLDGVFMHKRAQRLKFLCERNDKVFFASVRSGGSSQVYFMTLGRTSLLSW

SRSF protein kinase 1 = SRSF protein kinase 1 (Homo sapiens, UniProt Q96SB4);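 further: measured as one member of a kinome-wide kinase profiling panel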
Chain of SRSF protein kinase 1 (Q96SB4 whole entry): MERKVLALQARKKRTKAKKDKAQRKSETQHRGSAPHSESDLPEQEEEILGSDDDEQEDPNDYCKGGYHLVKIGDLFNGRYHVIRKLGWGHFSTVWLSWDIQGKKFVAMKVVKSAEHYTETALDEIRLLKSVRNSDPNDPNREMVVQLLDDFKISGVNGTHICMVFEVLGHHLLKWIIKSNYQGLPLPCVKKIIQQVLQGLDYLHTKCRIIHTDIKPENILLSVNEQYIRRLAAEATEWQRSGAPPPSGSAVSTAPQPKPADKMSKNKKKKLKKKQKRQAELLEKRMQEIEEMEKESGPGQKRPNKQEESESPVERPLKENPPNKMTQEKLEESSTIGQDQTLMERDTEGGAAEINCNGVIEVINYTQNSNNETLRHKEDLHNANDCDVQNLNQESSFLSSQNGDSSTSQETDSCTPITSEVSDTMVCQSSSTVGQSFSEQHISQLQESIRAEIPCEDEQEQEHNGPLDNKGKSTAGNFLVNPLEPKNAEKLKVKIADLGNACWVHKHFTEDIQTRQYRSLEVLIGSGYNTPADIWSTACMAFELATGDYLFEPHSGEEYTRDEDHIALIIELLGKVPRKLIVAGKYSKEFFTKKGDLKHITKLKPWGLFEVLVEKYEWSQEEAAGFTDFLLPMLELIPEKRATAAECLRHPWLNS

[17] = biological target: Cyclin-dependent kinase 5 (Homo sapiens, UniProt Q00535);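 further: CDK5 measured as one member of a kinase profiling panel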
[18] = biological target: Cyclin-dependent kinase 1 (Homo sapiens, UniProt P06493);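 further: Kinome-wide panel profiling, with the target listed as panel member CDC2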
[19] = biological target: Serine/threonine-protein kinase MRCK alpha (Homo sapiens, UniProt Q5VT25)

IC50 [1]: 255 nM (active) | IC50 [2]: 255 nM (active)
Structure (SMILES): N#CC(c1cc(F)ccc1F)c1c(Cl)cnn(Cc2cccc3ccccc23)c1=O (stereo not drawn)

Ki (Aurora kinase A): 100 nM (active) | Ki [3]: 126 nM (active) | Ki (Aurora kinase B): 200 nM (active)
Structure (SMILES): CC1(C)CC(C=Cc2ccc(Cl)cc2)=Cc2c1sc1ncnc(N)c21

Structure (SMILES): Cc1ccc(-c2nnc(S)n2/N=C/c2ccncc2)cc1
IC50 [4]: > 100000 nM (inactive) | IC50 [5]: 2480 nM (active) | AC50 [6]: 1480 nM (active) | AC50 [7]: 7710 nM (active) | AC50 [8]: 19300 nM (active)

Ki [9]: 794 nM (active) | Ki [10]: 31.6 nM (active) | Ki [11]: 2000 nM (active) | Ki [12]: > 10000 nM (inactive) | Ki [13]: 2510 nM (active) | Ki [14]: 794 nM (active) | Ki [15]: 10 nM (active) | Ki [16]: 79.4 nM (active)
Structure (SMILES): CNCCOc1cncc(-c2ccc3[nH]nc(C)c3c2)c1

Ki (SRSF protein kinase 1): 5010 nM (active) | Ki [17]: 5010 nM (active) | Ki [12]: 2510 nM (active) | Ki [18]: 3980 nM (active) | Ki [19]: 6310 nM (active)
Structure (SMILES): CN(c1ccccc1-c1ccc2c(c1)Nc1ccccc1NC2=O)S(C)(=O)=O
